Measurements reported in US6673793B2, “Oxazinoquinolones useful for the treatment of viral infections” (Pharmacia & Upjohn Co., priority 2000, dated 2004).

Tests used:
CMV polymerase = biological target: T1, CMV polymerase (Human cytomegalovirus, UniProt P08546); experiment: HCMV polymerase assay, scintillation proximity assay (SPA), modified version; assay type: biochemical; conditions: modified HCMV polymerase SPA assay: compounds diluted in 100% DMSO, 4.5 mM DTT in polymerase buffer, different lot of CMV polymerase; read-out: CMV polymerase IC50
T1 construct: made in house; host or cells: recombinant baculovirus-infected SF-9 cells
T1 sequence (P08546 whole entry): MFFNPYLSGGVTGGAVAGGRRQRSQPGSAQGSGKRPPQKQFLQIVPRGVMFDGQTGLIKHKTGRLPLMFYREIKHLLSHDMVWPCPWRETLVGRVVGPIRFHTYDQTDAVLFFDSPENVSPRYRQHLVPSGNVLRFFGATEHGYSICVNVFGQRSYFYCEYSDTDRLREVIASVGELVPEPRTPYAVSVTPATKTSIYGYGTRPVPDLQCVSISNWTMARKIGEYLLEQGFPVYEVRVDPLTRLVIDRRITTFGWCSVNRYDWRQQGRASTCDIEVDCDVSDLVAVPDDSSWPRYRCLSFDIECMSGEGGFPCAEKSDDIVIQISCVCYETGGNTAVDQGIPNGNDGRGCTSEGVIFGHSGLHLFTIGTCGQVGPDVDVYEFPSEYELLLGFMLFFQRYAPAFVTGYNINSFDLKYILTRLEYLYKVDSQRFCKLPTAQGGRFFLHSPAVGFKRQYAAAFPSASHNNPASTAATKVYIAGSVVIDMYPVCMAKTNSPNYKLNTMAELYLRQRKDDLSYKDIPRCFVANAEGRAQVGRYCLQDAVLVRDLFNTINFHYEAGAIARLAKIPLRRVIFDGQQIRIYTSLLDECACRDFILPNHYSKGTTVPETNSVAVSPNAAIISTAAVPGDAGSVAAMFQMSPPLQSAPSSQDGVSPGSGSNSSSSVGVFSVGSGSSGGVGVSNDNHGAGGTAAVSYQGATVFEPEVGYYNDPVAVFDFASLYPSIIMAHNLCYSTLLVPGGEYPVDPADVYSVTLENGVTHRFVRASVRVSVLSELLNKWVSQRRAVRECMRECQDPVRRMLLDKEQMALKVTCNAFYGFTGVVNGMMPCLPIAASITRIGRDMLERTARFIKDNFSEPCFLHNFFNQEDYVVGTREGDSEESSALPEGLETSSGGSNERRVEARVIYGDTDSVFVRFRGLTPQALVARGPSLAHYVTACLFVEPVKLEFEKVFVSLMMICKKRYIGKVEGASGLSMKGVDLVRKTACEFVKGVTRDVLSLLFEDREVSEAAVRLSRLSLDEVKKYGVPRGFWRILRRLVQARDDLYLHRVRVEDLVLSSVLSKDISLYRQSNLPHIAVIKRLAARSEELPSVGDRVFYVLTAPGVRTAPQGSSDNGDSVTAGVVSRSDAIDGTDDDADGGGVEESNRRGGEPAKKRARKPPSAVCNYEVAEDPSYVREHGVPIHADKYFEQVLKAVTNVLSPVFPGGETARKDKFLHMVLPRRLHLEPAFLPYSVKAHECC
Description: The HCMV polymerase assay is performed using a scintillation proximity assay (SPA) as described in several references, such as N. D. Cook, et al., Pharmaceutical Manufacturing International, pages 49-53 (1992); K. Takeuchi, Laboratory Practice, September issue (1992); U.S. Pat. No. 4,568,649 (1986); which are incorporated by reference herein. Reactions are performed in 96-well plates. The assay is conducted in 100 μl volume with 5.4 mM HEPES (pH 7.5), 11.7 mM KCl, 4.5 mM MgCl2, 0.36 mg/ml BSA, and 90 nM ^3H-dTTP. Assays are run with and without CHAPS, (3-[(3-Cholamidopropyl)-dimethylammonio]-1-propane-sulfonate) at a final concentration of 2 mM. HCMV polymerase is diluted in enzyme dilution buffer containing 50% glycerol, 250 mM NaCl, 10 mM HEPES (pH 7.5), 100 μg/ml BSA, and 0.01% sodium azide. The HCMV polymerase, which is expressed in recombinant baculovirus-infected SF-9 cells and purified according to literature procedures, is added at 10% (or 10 μl) of the final reaction volume, i.e., 100 μl. Compounds are diluted in 50% DMSO and 10 μl are added to each well. Control wells contain an equivalent concentration of DMSO. Unless noted otherwise, reactions are initiated via the addition of 6 nM biotinylated poly(dA)-oligo(dT) template/primer to reaction mixtures containing the enzyme, substrate, and compounds of interest. Plates are incubated in a 25 C. or 37 C. H2O bath and terminated via the addition of 40 μl/reaction of 0.5 M EDTA (pH 8) per well. Reactions are terminated within the time-frame during which substrate incorporation is linear and varied depending upon the enzyme and conditions used, i.e., 30 min. for HCMV polymerase. Ten μl of streptavidin-SPA beads (20 mg/ml in PBS/10% glycerol) are added following termination of the reaction. Plates are incubated 10 min. at 37 C., then equilibrated to room temperature, and counted on a Packard Topcount. Linear regressions are performed and IC50's are calculated using computer software.
A modified version of the above HCMV polymerase assay is performed as described above, but with the following changes: Compounds are diluted in 100% DMSO until final dilution into assay buffer. In the previous assay, compounds are diluted in 50% DMSO. 4.5 mM dithiotherotol (DTT) is added to the polymerase buffer.

| IC50 (CMV polymerase) [µM] | melting point | SMILES |
| --- | --- | --- |
| 0.76 | 178 to 180 °C | O=C(NCc1ccc(Cl)cc1)c1cn2c3c(cc(CN4CCOCC4)cc3c1=O)OC(CN1CCOCC1)C2 (stereo not drawn) [Example 2, N-(4-Chlorobenzyl)-2,9-bis(4-morpholinylmethyl)-7-oxo-2,3-dihydro-7H-[1,4]oxazino[2,3,4-ij]quinoline-6-carboxamide] |
| 0.76 | 168 to 170 °C | CN(C)CC1Cn2cc(C(=O)NCc3ccc(Cl)cc3)c(=O)c3cc(CN4CCOCC4)cc(c32)O1 (stereo not drawn) [Example 3, N-(4-Chlorobenzyl)-2-[(dimethylamino)methyl]-9-(4-morpholinylmethyl)-7-oxo-2,3-dihydro-7H-[1,4]oxazino[2,3,4-ij]quinoline-6-carboxamide] |
| 1.3 | 201 to 208 °C (dec.) | CN1CCN(CC2Cn3cc(C(=O)NCc4ccc(Cl)cc4)c(=O)c4cc(CN5CCOCC5)cc(c43)O2)CC1 (stereo not drawn) [Example 4, N-(4-Chlorobenzyl)-2-[(4-methyl-1-piperazinyl)methyl]-9-(4-morpholinylmethyl)-7-oxo-2,3-dihydro-7H-[1,4]oxazino[2,3,4-ij]quinoline-6-carboxamide] |
| 1.1 | 209.5 to 212 °C | O=C(NCc1ccc(Cl)cc1)c1cn2c3c(cc(CN4CCOCC4)cc3c1=O)OC(CN1CCCC1)C2 (stereo not drawn) [Example 5, N-(4-Chlorobenzyl)-9-(4-morpholinylmethyl)-7-oxo-2-(1-pyrrolidinylmethyl)-2,3-dihydro-7H-[1,4]oxazino[2,3,4-ij]quinoline-6-carboxamide] |
| 1.5 | 213 to 215 °C | O=C(NCc1ccc(Cl)cc1)c1cn2c3c(cc(CN4CCOCC4)cc3c1=O)OC(CN1CCCCC1)C2 (stereo not drawn) [Example 8, N-(4-Chlorobenzyl)-9-(4-morpholinylmethyl)-7-oxo-2-(1-piperidinylmethyl)-2,3-dihydro-7H-[1,4]oxazino[2,3,4-ij]quinoline-6-carboxamide] |
| 0.59 | 164 to 167 °C | O=C(NCc1ccc(Cl)cc1)c1cn2c3c(cc(CN4CCOCC4)cc3c1=O)OC(CNCc1ccncc1)C2 (stereo not drawn) [Example 12, N-(4-Chlorobenzyl)-9-(4-morpholinylmethyl)-7-oxo-2-{[(4-pyridinylmethyl)amino]methyl}-2,3-dihydro-7H-[1,4]oxazino[2,3,4-ij]quinoline-6-carboxamide] |
| 0.59 | 217 to 219 °C (dec.) | O=C(NCc1ccc(Cl)cc1)c1cn2c3c(cc(CN4CCOCC4)cc3c1=O)OC(Cn1ccnc1)C2 (stereo not drawn) [Example 13, N-(4-Chlorobenzyl)-2-(1H-imidazol-1-ylmethyl)-9-(4-morpholinylmethyl)-7-oxo-2,3-dihydro-7H-[1,4]oxazino[2,3,4-ij]quinoline-6-carboxamide] |
| 0.55 | 190 to 191 °C | CSCC1Cn2cc(C(=O)NCc3ccc(Cl)cc3)c(=O)c3cc(CN4CCOCC4)cc(c32)O1 (stereo not drawn) [Example 14, N-(4-Chlorobenzyl)-2-[(methylsulfanyl)methyl]-9-(4-morpholinylmethyl)-7-oxo-2,3-dihydro-7H-[1,4]oxazino[2,3,4-ij]quinoline-6-carboxamide] |
| 0.42 | 198 to 201 °C | CC(C)(C)SCC1Cn2cc(C(=O)NCc3ccc(Cl)cc3)c(=O)c3cc(CN4CCOCC4)cc(c32)O1 (stereo not drawn) [Example 15, 2-[(tert-Butylsulfanyl)methyl]-N-(4-chlorobenzyl)-9-(4-morpholinylmethyl)-7-oxo-2,3-dihydro-7H-[1,4]oxazino[2,3,4-ij]quinoline-6-carboxamide] |
| 0.58 | 182.5 to 183 °C | COC(=O)CSCC1Cn2cc(C(=O)NCc3ccc(Cl)cc3)c(=O)c3cc(CN4CCOCC4)cc(c32)O1 (stereo not drawn) [Example 18, Methyl ({[6-{[(4-chlorobenzyl)amino]carbonyl}-9-(4-morpholinylmethyl)-7-oxo-2,3-dihydro-7H-[1,4]oxazino[2,3,4-ij]quinolin-2-yl]methyl}sulfanyl)acetate] |
| 0.74 | 215 to 218 °C | CC(=O)OCC1Cn2cc(C(=O)NCc3ccc(Cl)cc3)c(=O)c3cc(CN4CCOCC4)cc(c32)O1 (stereo not drawn) [Example 24, [6-{[(4-Chlorobenzyl)amino]carbonyl}-9-(4-morpholinylmethyl)-7-oxo-2,3-dihydro-7H-[1,4]oxazino[2,3,4-ij]quinolin-2-yl]methyl acetate] |
| 0.6 | 213.5 to 216.5 °C | O=C(NCc1ccc(Cl)cc1)c1cn2c3c(cc(CN4CCOCC4)cc3c1=O)OC(F)(F)C2 [Example 28, N-(4-Chlorobenzyl)-2,2-difluoro-9-(4-morpholinylmethyl)-7-oxo-2,3-dihydro-7H-[1,4]oxazino[2,3,4-ij]quinoline-6-carboxamide] |
| 5 |  | O=C(NCc1ccc(Cl)cc1)c1cn2c3c(cc(C#CCO)cc3c1=O)OCC2(CO)CO [Example 31, N-(4-Chlorobenzyl)-3,3-bis(hydroxymethyl)-9-(3-hydroxy-1-propynyl)-7-oxo-2,3-dihydro-7H-[1,4]oxazino[2,3,4-ij]quinoline-6-carboxamide] |
| 3 |  | O=C(NCc1ccc(Cl)cc1)c1cn2c3c(cc(CCCO)cc3c1=O)OCC2(CO)CO [Example 32, N-(4-Chlorobenzyl)-3,3-bis(hydroxymethyl)-9-(3-hydroxypropyl)-7-oxo-2,3-dihydro-7H-[1,4]oxazino[2,3,4-ij]quinoline-6-carboxamide] |
| 0.52 |  | O=C(NCc1ccc(Cl)cc1)c1cn2c3c(cc(CN4CCOCC4)cc3c1=O)OC(c1ccccn1)C2 (stereo not drawn) [Example 33, N-(4-Chlorobenzyl)-9-(4-morpholinylmethyl)-7-oxo-2-(2-pyridinyl)-2,3-dihydro-7H1-[1,4]oxazino[2,3,4-ij]quinoline-6-carboxamide] |
| 0.48 |  | O=C(NCc1ccc(Cl)cc1)c1cn2c3c(cc(CN4CCOCC4)cc3c1=O)OC(c1cccnc1)C2 (stereo not drawn) [Example 34, N-(4-Chlorobenzyl)-9-(4-morpholinylmethyl)-7-oxo-2-(3-pyridinyl)-2,3-dihydro-7H-[1,4]oxazino[2,3,4-ij]quinoline-6-carboxamide] |
| 0.61 |  | O=C(NCc1ccc(Cl)cc1)c1cn2c3c(cc(CN4CCOCC4)cc3c1=O)OC(c1ccncc1)C2 (stereo not drawn) [Example 35, N-(4-Chlorobenzyl)-9-(4-morpholinylmethyl)-7-oxo-2-(4-pyridinyl)-2,3-dihydro-7H-[1,4]oxazino[2,3,4-ij]quinoline-6-carboxamide] |
| 0.42 |  | N#Cc1cccc(C2Cn3cc(C(=O)NCc4ccc(Cl)cc4)c(=O)c4cc(CN5CCOCC5)cc(c43)O2)c1 (stereo not drawn) [Example 36, N-(4-Chlorobenzyl)-2-(3-cyanophenyl)-9-(morpholin-4-ylmethyl)-7-oxo-2,3-dihydro-7H-[1,4]oxazino[2,3,4-ij]quinoline-6-carboxamide] |
| 0.38 | 193 to 196 °C | O=C(NCc1ccc(Cl)cc1)c1cn2c3c(cc(CN4CCOCC4)cc3c1=O)OC(c1ccoc1)C2 (stereo not drawn) [Example 37, N-(4-Chlorobenzyl)-2-(3-furyl)-9-(morpholin-4-ylmethyl)-7-oxo-2,3-dihydro-7H-[1,4]oxazino[2,3,4-ij]quinoline-6-carboxamide] |
| 0.46 |  | O=C(NCc1ccc(Cl)cc1)c1cn2c3c(cc(CN4CCOCC4)cc3c1=O)OC(c1cccs1)C2 (stereo not drawn) [Example 38, N-(4-Chlorobenzyl)-9-(morpholin-4-ylmethyl)-7-oxo-2-thien-2-yl-2,3-dihydro-7H-[1,4]oxazino[2,3,4-ij]quinoline-6-carboxamide] |
| 0.66 |  | O=C(NCc1ccc(Cl)cc1)c1cn2c3c(cc(CN4CCOCC4)cc3c1=O)OC(CNCc1ccc(Cl)cc1)C2 (stereo not drawn) [Example 56, N-(4-Chlorobenzyl)-2-{[(4-chlorobenzyl)amino]methyl}-9-(morpholin-4-ylmethyl)-7-oxo-2,3-dihydro-7H-[1,4]oxazino[2,3,4-ij]quinoline-6-carboxamide] |
| 1.05 |  | COCOc1ccccc1C1Cn2cc(C(=O)NCc3ccc(Cl)cc3)c(=O)c3cc(CN4CCOCC4)cc(c32)O1 (stereo not drawn) [Example 64, N-(4-Chlorobenzyl)-2-[2-(methoxymethoxy)phenyl]-9-(morpholin-4-ylmethyl)-7-oxo-2,3-dihydro-7H-[1,4]oxazino[2,3,4-ij]quinoline-6-carboxamide] |
| 0.82 |  | O=C(NCc1ccc(Cl)cc1)c1cn2c3c(cc(CN4CCOCC4)cc3c1=O)OC(c1ccccc1O)C2 (stereo not drawn) [Example 68, N-(4-Chlorobenzyl)-2-(2-hydroxyphenyl)-9-(morpholin-4-ylmethyl)-7-oxo-2,3-dihydro-7H-[1,4]oxazino[2,3,4-ij]quinoline-6-carboxamide] |
